Test results from US10682319B2, “Necrosis inhibitors” (National Institute of Biological Sciences, Beijing, priority 2014, dated 2020).
Where two headings read alike, the source gives them in different places.

Tests used:
HT-29 cells = test: Necrosis assay (TNF-α/Smac mimetic/z-VAD induced necrosis, cell viability by ATP level); assay type: cell-based
In short: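 Necrosis induced by 20 ng/ml TNF-α, 100 nM Smac mimetic and […], with compound added concurrently for 24 h. Viability read as ATP luminescence (CellTiter-Glo), normalized to DMSO-treated cells; duplicates.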

[1] = target: T1, Recombinant full-length RIPK1 protein with N-terminal GST-tag (hRIP1 kinase) (Homo sapiens, UniProt Q13546); test: Kinase assay of RIPK1 (ADP-Glo); assay type: biochemical; conditions: for IC50: RIPK1 161 nM, ATP 50 uM, MBP 20 uM, 90 min
T1 construct: Recombinant full-length RIPK1 protein with N-terminal GST-tag; GST (N); purchased SignalChem R07-34G
T1 sequence (Q13546 1-671): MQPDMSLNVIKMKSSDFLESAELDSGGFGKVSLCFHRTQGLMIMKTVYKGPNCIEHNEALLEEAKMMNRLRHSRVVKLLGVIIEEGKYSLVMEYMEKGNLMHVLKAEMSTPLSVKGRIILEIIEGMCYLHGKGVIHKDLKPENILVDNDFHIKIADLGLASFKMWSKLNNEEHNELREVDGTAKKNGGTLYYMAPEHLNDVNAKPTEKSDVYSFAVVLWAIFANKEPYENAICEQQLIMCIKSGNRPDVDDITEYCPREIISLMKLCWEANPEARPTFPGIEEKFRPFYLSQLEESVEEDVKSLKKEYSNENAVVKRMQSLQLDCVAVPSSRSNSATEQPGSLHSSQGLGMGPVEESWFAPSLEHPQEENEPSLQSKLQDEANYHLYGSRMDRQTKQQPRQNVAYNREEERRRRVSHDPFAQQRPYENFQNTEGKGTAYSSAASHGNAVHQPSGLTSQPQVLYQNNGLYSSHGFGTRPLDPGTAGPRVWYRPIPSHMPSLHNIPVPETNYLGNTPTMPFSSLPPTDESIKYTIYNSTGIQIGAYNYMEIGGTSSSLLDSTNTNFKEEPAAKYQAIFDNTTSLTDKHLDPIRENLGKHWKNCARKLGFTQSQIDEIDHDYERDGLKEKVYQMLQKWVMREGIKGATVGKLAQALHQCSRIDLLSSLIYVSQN
Description: Recombinant full-length RIPK1 protein with N-terminal GST-tag (Cat # R07-34G) was purchased from SignalChem. The ADP-Glo™ kinase assay kit (Cat # V9102) was from Promega. MBP (cat # M2295) protein and all the other chemicals were from Sigma. The 384-well assay plates (Cat #3674, white, opaque) were purchased from Corning.
Kinase activity assay and data analysis: The RIPK1 kinase assay was performed in white 384-well plate. The assay buffer contained 25 mM HEPES (pH7.2), 20 mM MgCl2, 12.5 mM MnCl2, 5 mM EGTA, 2 mM EDTA, 12.5 mM β-glycerol phosphate and 2 mM DTT. RIPK1 was first incubated with compounds or DMSO control for 15 min, then ATP/MBP substrate mixture was added to initiate the reaction. The final concentration of RIPK1 was 161 nM, while the final concentration of ATP was 50 uM, and MBP 20 uM. After 90 min reaction at room temperature, the ADP-Glo reagent and detection solution were added following the technical manual of ADP-Glo™ kinase assay kit (Promega). The luminescence was measured on PerkinElmer Enspire. The data was analyzed using Graphpad Prism (GraphPad Software; www.graphpad.com). The curves were fitted using a non-linear regression model with a sigmoidal dose response.

[2] = Homo sapiens, HT-29, cell necrosis assay, exemplary data table, read-out: Cell viability assay, EC50
[3] = HT-29, TNF-α + Smac mimetic + z-VAD, 24 hrs, ATP level, values given as ranges in nM, read-out: EC50 (inhibition of necrosis in HT-29 cells)

| inhibition at 2 µM ([1]; at 2uM compound) [%] | IC50 [1] [nM] | Compound | EC50 (HT-29 cells; Homo sapiens, HT-29, 24 h, HT-29, TNF-α + Smac mimetic + z-VAD, 24 hrs, ATP level, values given as ranges in uM, read-out: EC50 (inhibition of necrosis in HT-29 cells)) [µM] | EC50 (HT-29 cells; [2]) [µM] | EC50 (HT-29 cells; [3]) [µM] |
| --- | --- | --- | --- | --- | --- |
| 66 | – | CCC(C)(C)C(=O)N(C)Cc1ccccc1Cl [Compound 14, N-(2-chlorobenzyl)-N,2,2-trimethylbutanamide] | 1 to 10 | 3.28 | – |
| – | 29.6 | CCC(C)(C)C(=O)N(O)Cc1cc(F)c(F)c(F)c1 [Compound 99, N-hydroxy-2,2-dimethyl-N-(3,4,5-trifluorobenzyl)butanamide] | – | 0.0457 | 0.001 to 1 |
| – | 33 | CCC(C)(C)C(=O)N(C)Cc1cc(F)cc(F)c1F [Compound 75, N,2,2-trimethyl-N-(2,3,5-trifluorobenzyl)butanamide] | – | – | 0.001 to 1 |
| – | 52 | CCC(C)(C)C(=O)N(C)Cc1cccc(F)c1 [Compound 16, N-(3-fluorobenzyl)-N,2,2-trimethylbutanamide] | – | – | 0.001 to 1 |
| – | 13.2 | CCC(C)(C)C(=O)N(O)Cc1ccccc1 [Compound 92, N-benzyl-N-hydroxy-2,2-dimethylbutanamide] | – | 0.0284 | 0.001 to 1 |
